Where no end group is shown, it is not given here.
Legend:
[1] = test system: tumor blood vessels; assay: Intravital confocal microscopy of tumor blood flow; assay type: in vivo, mice; settings: 4 mg/kg i.v.; Ni-liposome pre-injection; DiI-labeled erythrocytes as flow marker
Protocol: (§1) Mice bearing MDA-MB-435 xenografts were injected with Ni-liposomes and CREKA-SPIO nanoparticles as described in the legend to FIG. 2. The mice were perfused 6 hours after the nanoparticle injection and tissues were collected. (A) Upper panels: Co-localization of nanoparticle fluorescence with CD31 staining in blood vessels; Middle panels: Co-localization of nanoparticle fluorescence and anti-fibrin(ogen) staining in tumor blood vessels. Inset—an image showing CREKA-SPIO distributed along fibrils in a tumor blood vessel; Lower panels: Lack of co-localization of nanoparticle fluorescence with anti-CD41 staining for platelets. (B) Intravital confocal microscopy of tumors using DiI-stained red blood cells as a marker of blood flow. The arrow points to a vessel in which stationary erythrocytes indicate obstruction of blood flow. Blood flow in the vessel above is not obstructed. Six successive frames from a 1-min movie (Movie 2 in Supplementary Material) are shown. (C) CREKA-coated liposomes co-localize with fibrin in tumor vessels. The results are representative of 3 independent experiments. Magnification: A and C, 600×, B, 200×.
Tumor blood flow in MDA-MB 435 xenograft-bearing mice was observed by intravital microscopy. Mice were pre-injected with Ni-liposomes and 5×10^8 of DiI-labeled erythrocytes. […] Movies were recorded at 10 min intervals up to 120 min post-injection.

[2] = test system: tumor vessels; assay: Nanoparticle-induced blood clotting in vessels (fibrin(ogen)/CD31 staining, microscopy); assay type: in vivo, mice
Protocol: as §1
(§2) Mice bearing MDA-MB-435 human breast cancer xenografts were intravenously injected with PBS or a bolus of 800 U/kg of heparin followed 120 min later by Ni-liposomes (or PBS) and CREKA-SPIO (or control nanoparticles). The mice received additional heparin by intraperitoneal injections (a total of 1000 U/kg) or PBS throughout the experiment. (A) Tumors were removed 6 hours after the nanoparticle injection, and magnetic signal in the tumor after different treatments was determined with SQUID. Aminated dextran SPIO served as a particle control (control SPIO). […] The magnetization values were normalized to dry weight of the tissue. Results from 3 experiments are shown. (B) Quantification of heparin effect on clotting in blood vessels. Mice were pretreated with PBS (white bars) or heparin (black bars) as described above, followed by Ni liposomes/CREKA-SPIO nanoparticles. Three sections from two tumors representing each treatment were stained with anti-CD31 for blood vessels, and the percentage of vessels positive for fluorescence and fluorescent clots was determined. […] (C) A representative example of the appearance of CREKA-SPIO particles in tumor vessels of mice treated with heparin. (D) Near-infrared imaging of mice that received Ni-liposomes followed by Cy7-labeled CREKA-SPIO with or without heparin pretreatment. The images were acquired 8 hours after the injection of the CREKA-SPIO particles using an Odyssey 2 NIR scanner (Li-COR Biosciences, Lincoln, Nebr.). The images shown are composites of 2 colors, red (700 nm channel, body and chow autofluorescence) and green (800 nm channel, Cy7). Arrows point to the tumors, arrowheads to the liver. Note the strong decrease in signal from the tumor in the heparin-pretreated mouse. A representative experiment out of 3 is shown.
The low magnification (40×) was used to produce these images because only blood vessels in which clotting had concentrated the CREKA-SPIO fluorescence are visible at this magnification. […]
For intravenous injections, the animals were anesthetized with intraperitoneal Avertin, and liposomes (2 μmol DSPC) and/or nanoparticles (1-4 mg Fe/kg body weight) were injected into the tail vein. The animals were sacrificed 5-24 h post-injection by cardiac perfusion with PBS under anesthesia, and organs were dissected and analyzed for particle homing. […]

[3] = Nanoparticle clearance (plasma circulation half-life); assay type: in vivo, mice
[4] = test system: platelets; assay: Role of platelets in nanoparticle homing; assay type: in vivo, mice; settings: platelet depletion with anti-CD41 monoclonal antibody
Protocol: (A). Blood was drawn 5 min post-injection of 4 mg/kg of CREKA-SPIO into mice and a 50 μl aliquot was run through a magnetic column. Bound CREKA-SPIO particles were eluted form the column, concentrated on a slide, and stained with anti-CD41 antibody. Some of the particles appear to be associated with platelets. (B). A low-magnification image (40×) showing CREKA-SPIO homing and clot formation in a tumor from a platelet-depleted mouse. Platelet depletion was accomplished by treating mice with 0.1 mg of an anti-CD41 monoclonal antibody as described (Van der Heyde and Gramaglia (2005)). The mice subsequently received Ni-liposomes/CREKA-SPIO as described in the legend of FIG. 2.

[5] = test system: mouse plasma clots; assay: Nanoparticle binding to mouse plasma clots in vitro
Protocol: (§3) Phage binding to clotted plasma proteins was determined as described (Pilch 2006). CREKA-SPIO and control SPIO were added to freshly formed plasma clots in the presence or absence of free CREKA peptide. After 10 min incubation, the clots were washed 4 times in PBS, transferred to a new tube and digested in 100 μl concentrated nitric acid. The digested material was diluted in 2 ml distilled water and the iron concentration was determined using inductively coupled plasma-optical emission spectroscopy (ICP-OES, PerkinElmer, Norwalk, Conn.).

[6] = test system: MDA-MB-435 human breast cancer xenografts; assay: Tumor magnetization by SQUID magnetometer; assay type: in vivo, mice
Protocol: as §2, with “The images were acquired 8 hours after the injection of the CREKA-SPIO particles using an Odyssey 2 NIR scanner (Li-COR Biosciences, Lincoln, Nebr.). The images shown are composites of 2 colors, red (700 nm channel, body and chow autofluorescence) and green (800 nm channel, Cy7). Arrows point to the tumors, arrowheads to the liver. Note the strong decrease in signal from the tumor in the heparin-pretreated mouse. A representative experiment out of 3 is shown.” left out

[7] = test system: MDA-MB-435 breast cancer xenografts; assay: Tumor homing and tissue distribution of intravenously injected particles (fluorescence microscopy); assay type: in vivo, mice
Protocol: CREKA-SPIO particles were intravenously injected (4 mg Fe/kg) into Balb/c nude mice bearing MDA-MB-435 human breast cancer xenograft tumors measuring 1-1.5 cm in diameter. The mice were sacrificed by perfusion 5-6 hours later and tissues were examined for CREKA-SPIO fluorescence (green). Nuclei were stained with DAPI (blue). (A) Distribution of CREKA-SPIO in tissues from MDA-MB-435 tumor mice that received 2 hours earlier an injection of PBS (A, upper panels) or Ni/DSPC/CHOL liposomes (Ni-liposomes) containing 0.2 μmol Ni in 200 μl of PBS (A, lower panels). (B) Plasma circulation half-life of CREKA-SPIO following different treatments. At least 4 time points were collected. Data were fitted to mono-exponential decay using Prizm software (GraphPad, San Diego, Calif.), and the half-life values were compared in unpaired t-test (***p<0.0001, n=10). (C) Accumulation of CREKA-SPIO nanoparticles in tumor vessels. Mice were injected and tissues collected as in panel A. Fluorescent intravascular CREKA-SPIO particles overlap with iron oxide viewed in transmitted light. Magnification: 600×. (D) Control organs of Ni-liposome/CREKA-SPIO-injected mice. Occasional spots of fluorescence are seen in the kidneys and lungs. […] Representative results from at least 3 independent experiments are shown. Magnification A and D, 200×; C, 600×.
For intravenous injections, the animals were anesthetized with intraperitoneal Avertin, and liposomes (2 μmol DSPC) and/or nanoparticles (1-4 mg Fe/kg body weight) were injected into the tail vein. The animals were sacrificed 5-24 h post-injection by cardiac perfusion with PBS under anesthesia, and organs were dissected and analyzed for particle homing. To suppress liver macrophages, mice were intravenously injected with liposomal clodronate suspension (100 μl per mouse), and the mice were used for experiments 24 hours later.

[8] = test system: human plasma clots; assay: Nanoparticle binding to human plasma clots in vitro
Protocol: as §3

[9] = plain liposomes as decoy particles, injected before
[10] = after Ni-liposome pre-treatment
[11] = intravenous injection, no decoy pretreatment

## CREKA-SPIO: Fluorescein-labeled CREKA coupled onto 50 nm superparamagnetic, amino dextran-coated iron oxide nanoparticles; at least 8,000 peptide molecules per particle (Fluorescein-CREKA; not fully specified; printed as fluorescein-CREKA; also: coupled to amino dextran-coated iron oxide nanoparticle)
[1]
  clot formation and blood flow in tumor blood vessels: time-dependent clot formation and obstruction of blood flow
[2]; after liposome pretreatment
  tumor vessel lumens filled with fluorescent masses (occlusion): up to 20%
[2]; heparin pretreatment
  intravascular clotting, effect of heparin: essentially eliminated the intravascular clotting
  number of vessels with nanoparticles bound to the vessel walls, effect of heparin: did not significantly reduce
[2]; liver
  colocalization of fibrin(ogen) staining and particle fluorescence in liver vessels: no colocalization
[2]; low magnification images
  clotting in kidneys and lungs (non-RES tissues): no clotting in these tissues, with the exception of very rare clots in the kidneys
[3]; RES macrophages in the liver depleted with liposomal clodronate
  prolongation in particle half-life: ~5 fold
[3]; [9]
  blood half-life: prolonged the blood half-life
[3]; pretreatment with intravenously injected Ni-liposomes
  prolongation of half-life in the blood: about 5 factor
[4]
  effect of thrombocytopenia on homing to MDA-MB-435 tumors: no noticeable effect
[5]
  binding to plasma clots: bound to mouse and human plasma clots
[6]; SQUID and fluorescence signal, tumors removed 6 hours after injection
  greater accumulation in tumor, Ni-liposome-pretreated compared to PBS-pretreated mice: about 6 fold
[6]; heparin injected prior to CREKA-SPIO, SQUID
  reduction of tumor accumulation of nanoparticles by heparin: more than 50%
[7]; Ni-liposome pretreatment 5 min or 48 h prior to injection
  tumor homing: greatly increased the tumor homing
[7]; [10]
  accumulation in the spleen: unchanged or even enhanced
  particles in the liver: Fewer particles
[7]; [11]
  accumulation in tumor: did not accumulate effectively
  particles in reticuloendothelial system (RES) tissues: high concentration of particles
[7]; [9]
  tumor homing: prolonged the blood half-life and tumor homing
[7]; whether Ni-liposomes were used or not
  particles in other organs: minor amounts of CREKA-SPIO particles or no particles at all
[8]
  binding to plasma clots: bound to mouse and human plasma clots
